For 25 compounds, IC50 and double-target inhibition activity results are on record in patent US12331058B2, “SHP2 and CDK4/6 dual-target inhibitory compound and pharmaceutical composition containing the same” (CHINA PHARMACEUTICAL UNIVERSITY, priority 2021, dated 2025).

One assay deals with CDK4 (Homo sapiens, UniProt P11802). The experiment in a line: CDK4 enzyme activity test in vitro. It counts as biochemical. Particulars: Caliper EZ Reader II conversion.
A further assay concerns the target T1, SHP2 (Homo sapiens, UniProt Q06124).
T1 sequence (Q06124 1-593): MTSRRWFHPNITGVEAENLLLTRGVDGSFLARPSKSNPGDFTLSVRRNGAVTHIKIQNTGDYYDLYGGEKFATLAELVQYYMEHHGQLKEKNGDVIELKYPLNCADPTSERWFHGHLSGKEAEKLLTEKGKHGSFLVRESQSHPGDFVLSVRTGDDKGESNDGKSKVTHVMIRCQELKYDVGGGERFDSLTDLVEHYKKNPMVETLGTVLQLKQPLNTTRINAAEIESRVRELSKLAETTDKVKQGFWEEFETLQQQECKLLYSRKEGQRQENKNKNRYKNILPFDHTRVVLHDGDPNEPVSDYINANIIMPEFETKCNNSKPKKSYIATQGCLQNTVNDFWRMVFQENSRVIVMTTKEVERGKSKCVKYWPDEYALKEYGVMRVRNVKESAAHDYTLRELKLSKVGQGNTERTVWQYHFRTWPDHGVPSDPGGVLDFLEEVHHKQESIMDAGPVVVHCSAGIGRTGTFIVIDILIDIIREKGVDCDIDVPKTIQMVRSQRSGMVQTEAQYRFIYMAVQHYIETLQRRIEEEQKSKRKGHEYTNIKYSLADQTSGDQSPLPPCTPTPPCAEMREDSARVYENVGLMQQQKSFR
The experiment in a line: SHP2 enzyme activity test in vitro.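 Further: IC50 derived by variable-slope curve fitting of percent inhibition of SHP2 enzymatic activity plotted against log compound concentration.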

In a further assay the test system is MDA-MB-231 cells. The experiment in a line: In vitro antiproliferative activity (MTT), MDA-MB-231. It counts as cell-based. The following applies: Homo sapiens, MDA-MB-231, 72 h, 3 days of incubation. On the procedure: (§1) In Vitro Antiproliferative Activity of Compound 1. Experimental Procedure
(§2) (4) MDA-MB-231, MDA-MB-468 or EMT6 cells are taken out of a liquid nitrogen tank, immediately placed in a constant temperature water bath at 37° C. and melted by shaking, then the cells are poured into a culture flask. The culture solution (containing 10% of fetal bovine serum) is added for dilution. The diluted culture medium is transferred into a centrifuge tube, centrifuged at 1000 r/min for 5 minutes. The supernatant is discarded and fresh culture medium is added for blowing and mixing uniformly. The mixture is transferred into a culture bottle, and cultured in a culture box with a concentration of 5% CO2 at 37° C. When the cells are adhered to the wall and almost fully paved at the bottle bottom, the passage begins. A little amount of fresh culture medium (containing 10% of fetal calf serum) is added to terminate the digestion. The liquid in the culture bottle is poured out, and the culture bottle is washed twice with PBS. The fresh culture medium is added to blow and mix uniformly, and divided evenly into two culture bottles for continuing the culture.
(§3) (5) Cells in the logarithmic phase are taken, and the old culture medium are poured out. The trypsin solution is added for digestion for 3 minutes, and the fresh culture medium containing 10% of fetal bovine serum is added for terminating digestion. The solution is transferred into a centrifuge tube, centrifuged at 1000 r/min for 5 minutes, and the supernatant is discarded. The cells are counted by adding a medium to prepare into a cell suspension. After counting, cells are seeded in 96-well plates at a cell concentration of 5000-10000 cells per well. The 96-well plate with the spread cells is placed in a 5% CO2 incubator at 37° C. for a continuous culture for 24 hours. The drugs are diluted in gradient to 90μ mol/L, 30μ mol/L, 10μ mol/L, […], 0.37μ mol/L with medium and then added to 96-well plates at 100 μL per well, with three multiplex wells per concentration. The control group is added with medium containing solvent with the corresponding concentration, the zeroing hole is added with blank medium with the same volume, and the blank medium is placed in a culture box with 5% CO2 and 37° C. for 3 days of incubation with a replacement of the medium every two days. 20 μL of MTT (5 mg/mL) is added to each well. After mixing uniformly, the mixture is incubated in a 5% CO2 incubator at 37° C. for 4 hours in the absence of light. With a removement of the liquid in the 96-well plate and an addition of 150 μl of DMSO to each well, the mixture is placed on a micro-shaker and shaken to completely dissolve the crystals at the bottom. Subsequently, the 96-well plate is placed in an microplate reader for detection and the absorbance is measured at 490 nm.
(§4) Curve is drawn and inhibition rate of drug to cell and IC50 are calculated. Inhibition ratio=[(average OD value for control group-average OD value for experimental group)/(average OD value for control group-average OD value for blank control group)]×100%. 3. Experimental Results
(§5) The inhibitory activities of the compounds on MDA-MB-231, MDA-MB-468 and EMT6 cell lines are as follows: […]

The subject of another assay is MDA-MB-468 cells. The experiment in a line: In vitro antiproliferative activity (MTT), MDA-MB-468. It is filed as cell-based. The following applies: Homo sapiens, MDA-MB-468, 72 h, 3 days of incubation. How it is done: as §1, §2, §3, §4, §5
The test system of a further assay is EMT6 cells. Kind of assay: In vitro antiproliferative activity (MTT), EMT6. It counts as cell-based. Particulars: Mus musculus, EMT6, 72 h, 3 days of incubation. How it is done: as §1, §2, §3, §4, §5
The test system of another assay is SHP2 and CDK4/6. Kind of assay: In vitro enzyme activity and antiproliferative activity tests (summary statement).

Where two headings read alike, the source gives them in different places.

CDK4, sequence (P11802 whole entry): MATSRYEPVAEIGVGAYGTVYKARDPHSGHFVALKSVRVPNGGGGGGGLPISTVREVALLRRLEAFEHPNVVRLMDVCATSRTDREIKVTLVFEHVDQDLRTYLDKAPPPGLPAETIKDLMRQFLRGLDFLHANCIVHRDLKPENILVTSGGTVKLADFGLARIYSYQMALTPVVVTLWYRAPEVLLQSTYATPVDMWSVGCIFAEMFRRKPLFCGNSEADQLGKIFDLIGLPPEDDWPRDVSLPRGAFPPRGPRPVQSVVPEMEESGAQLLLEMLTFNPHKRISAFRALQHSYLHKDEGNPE
CDK4, sequence (P30281 whole entry partner): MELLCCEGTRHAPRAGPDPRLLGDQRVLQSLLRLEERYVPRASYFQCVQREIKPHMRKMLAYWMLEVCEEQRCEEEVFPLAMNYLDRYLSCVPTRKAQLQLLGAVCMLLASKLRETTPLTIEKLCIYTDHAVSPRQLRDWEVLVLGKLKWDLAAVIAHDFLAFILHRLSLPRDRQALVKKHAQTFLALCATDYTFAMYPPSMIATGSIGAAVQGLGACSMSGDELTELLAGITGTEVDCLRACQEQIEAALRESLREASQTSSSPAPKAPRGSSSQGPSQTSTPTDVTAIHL

Consider `Cc1nc2c(F)cc(-c3nc(Nc4ccc(Sc5cnc(N6CCC7(CC6)CO[C@@H](C)[C@H]7N)cn5)c(C#N)n4)ncc3F)cc2n1C(C)C` [Compound 12], for which the IC50 against CDK4 was 141 nM; on SHP2 it was above 1000 nM.
In the same order, the values of `CN(C)C(=O)c1cc2cnc(Nc3nccc(Sc4cnc(N5CCC6(CC5)Cc5ccccc5[C@H]6N)cn4)c3Cl)nc2n1C1CCCC1` [Compound 5] are above 1000 nM and 4 nM.
Regarding `CN(C)C(=O)c1cc2cnc(Nc3nccc(Sc4cnc(N5CC[C@H](N)c6ccccc6C5)cn4)c3Cl)nc2n1C1CCCC1` [Compound 6], the figures for the IC50 on CDK4 and against SHP2 were above 1000 nM and 736 nM, respectively.
In the case of `C[C@@H]1OCC2(CCN(c3cnc(Sc4ccnc(N)c4Cl)c(N)n3)CC2)[C@@H]1N` [TNO155, reference compound], the IC50 with MDA-MB-231 cells is above 20 µM; with MDA-MB-468 cells, above 20 µM; with EMT6 cells it was 7 µM.
Take `Cc1nc2c(F)cc(-c3nc(Nc4ccc(Sc5cnc(N6CCC7(CC6)CO[C@@H](C)[C@H]7N)cn5)c(Cl)n4)ncc3F)cc2n1C(C)C` [Compound 15]: the IC50 is 145 nM on CDK4 and above 1000 nM against SHP2.
On to `Cc1nc2c(F)cc(-c3nc(Nc4cccc(Sc5cnc(N6CCC7(CC6)CO[C@@H](C)[C@H]7N)cn5)c4Cl)ncc3F)cc2n1C(C)C` [Compound 25], for which, in the assay with SHP2 and CDK4/6, the double-target inhibition activity entry is given as “better double-target inhibition activity”. For the same compound, the IC50 turned out to be 4.6 µM in the assay with MDA-MB-231 cells; 9.1 µM in the assay with MDA-MB-468 cells; 8 nM on CDK4; 15 nM against SHP2; 0.6 µM in the assay with EMT6 cells.
Turning to `CN(C)C(=O)c1cc2cnc(Nc3ccc(Sc4cnc(N5CCC(C)(N)CC5)cn4)c(Cl)n3)nc2n1C1CCCC1` [Compound 16], the IC50 on SHP2 was above 1000 nM.
Take `Cc1nc2c(F)cc(-c3nc(Nc4ccc(Cl)c(Sc5cnc(N6CCC7(CC6)CO[C@@H](C)[C@H]7N)cn5)n4)ncc3F)cc2n1C(C)C` [Compound 20]: the figures for the IC50 against CDK4 and at SHP2 were 123 nM and 598 nM, respectively.
For `Cc1nc2c(F)cc(-c3nc(Nc4ccc(Sc5cnc(N6CCC7(CC6)CO[C@@H](C)[C@H]7N)cn5)c(Cl)c4)ncc3F)cc2n1C(C)C` [Compound 23], in the assay on SHP2 and CDK4/6, the double-target inhibition activity result was “better double-target inhibition activity”. In addition, the IC50 with MDA-MB-231 cells came out at 3.2 µM; in the assay with MDA-MB-468 cells it was 10.5 µM; at SHP2 (read-out: SHP2 IC50, fluorescence Ex355/Em460, activation peptide) it was 61 nM; with EMT6 cells it was 1.7 µM.
For `Cc1nc2c(F)cc(-c3nc(Nc4cc(Sc5cnc(N6CCC7(CC6)CO[C@@H](C)[C@H]7N)cn5)c(Cl)cn4)ncc3F)cc2n1C(C)C` [Compound 17], the concentration for half-maximal inhibition (IC50) at CDK4 and against SHP2 was above 1000 nM each time.
On to `Cc1nc2c(F)cc(-c3nc(Nc4ccc(Sc5cnc(N6CCC7(CC6)Cc6ccccc6[C@H]7N)cn5)c(Cl)n4)ncc3F)cc2n1C(C)C` [Compound 24], for which the IC50 against CDK4 and against SHP2 was above 1000 nM each time.
For the compound `Cc1nc2c(F)cc(-c3nc(Nc4cnc(Sc5cnc(N6CCC7(CC6)CO[C@@H](C)[C@H]7N)cn5)c(Cl)c4)ncc3F)cc2n1C(C)C` [Compound 13], the IC50 at CDK4 was found to be 11 nM; at SHP2, 216 nM.
In the same order, the values of `Cc1nc2c(F)cc(-c3nc(Nc4ccc(Sc5cnc(N6CCC(C)(N)CC6)cn5)c(C#N)n4)ncc3F)cc2n1C(C)C` [Compound 11] are 31 nM and above 1000 nM.
On to `Cc1nc2c(F)cc(-c3nc(Nc4nccc(Sc5cnc(N6CCC7(CC6)Cc6ccccc6[C@H]7N)cn5)c4Cl)ncc3F)cc2n1C(C)C` [Compound 10], for which the double-target inhibition activity result in the assay on SHP2 and CDK4/6 is listed as “better double-target inhibition activity”. The IC50 amounted to 4.4 µM in the assay on MDA-MB-231 cells, 5.9 µM in the assay with MDA-MB-468 cells, 10 nM on SHP2 and 1.1 µM in the assay on EMT6 cells.
Take `Cc1nc2c(F)cc(-c3nc(Nc4cc(Sc5cnc(N6CCC7(CC6)CO[C@@H](C)[C@H]7N)cn5)ccn4)ncc3F)cc2n1C(C)C` [Compound 26]: the double-target inhibition activity result in the assay on SHP2 and CDK4/6 is listed as “better double-target inhibition activity”. The IC50 with MDA-MB-231 cells came to 5.1 µM; in the assay with MDA-MB-468 cells, 9.6 µM; against CDK4, 17 nM; on SHP2, 48 nM; in the assay on EMT6 cells it was 1.1 µM.
Turning to `CN(C)C(=O)c1cc2cnc(Nc3nccc(Sc4cnc(N5CCN([C@H]6Cc7ccccc7[C@H]6N)CC5)cn4)c3Cl)nc2n1C1CCCC1` [Compound 8], the IC50 against CDK4 is 905 nM; against SHP2, above 1000 nM.
The like results for `CN(C)C(=O)c1cc2cnc(Sc3cnc(N4CCC(C)(N)CC4)cn3)cc2n1C1CCCC1` [Compound 1] were, in that order, above 1000 nM and above 1000 nM.
Turning to `Cc1nc2c(F)cc(-c3nc(Nc4nccc(Sc5cnc(N6CCC7(CC6)CO[C@@H](C)[C@H]7N)cn5)c4C#N)ncc3F)cc2n1C(C)C` [Compound 19], the double-target inhibition activity entry in the assay on SHP2 and CDK4/6 is recorded as “better double-target inhibition activity”. Further, the IC50 was determined as 9.6 µM with MDA-MB-231 cells; 3.7 µM in the assay on MDA-MB-468 cells; 3 nM on CDK4; 9 nM on SHP2; 0.7 µM with EMT6 cells.
For the compound `CN(C)C(=O)c1cc2cnc(Nc3ccc(Sc4cnc(N5CCC6(CC5)Cc5ccccc5[C@H]6N)cn4)c(Cl)n3)nc2n1C1CCCC1` [Compound 9], the IC50 against CDK4 was 538 nM; against SHP2, 36 nM.
Turning to `CN(C)C(=O)c1cc2cnc(Nc3ccc(Sc4cnc(N5CCC6(CC5)Cc5ccccc5[C@H]6N)cn4)c(Cl)c3)nc2n1C1CCCC1` [Compound 3], the IC50 is above 1000 nM against CDK4 and 57 nM at SHP2.
For the compound `CN(C)C(=O)c1cc2cnc(N(c3ncc4cc(C(=O)N(C)C)n(C5CCCC5)c4n3)c3nccc(Sc4cnc(N5CC[C@H](N)c6ccccc6C5)cn4)c3Cl)nc2n1C1CCCC1` [Compound 7], the IC50 against CDK4 and against SHP2 was above 1000 nM each time.
With `CN(C)C(=O)c1cc2cnc(Nc3ccc(Sc4cnc(N5CCC(C)(N)CC5)cn4)cn3)nc2n1C1CCCC1` [Compound 2], the IC50 was 9 nM against CDK4 and above 1000 nM on SHP2.
On to `Cc1nc2c(F)cc(-c3nc(Nc4cc(Cl)c(Sc5cnc(N6CCC7(CC6)CO[C@@H](C)[C@H]7N)cn5)cn4)ncc3F)cc2n1C(C)C` [Compound 21], for which the values for the half-maximal inhibitory concentration (IC50) on CDK4 and against SHP2 were 9 nM and above 1000 nM, respectively.
With `CCN1CCN(Cc2ccc(Nc3ncc(F)c(-c4cc(F)c5nc(C)n(C(C)C)c5c4)n3)nc2)CC1` [Abemaciclib, reference compound], the results for the IC50 in the assay on MDA-MB-231 cells, in the assay on MDA-MB-468 cells and in the assay with EMT6 cells were above 20 µM, above 20 µM and 4.2 µM, respectively.
On to `CN(C)C(=O)c1cc2cnc(Nc3nccc(Sc4cnc(N5CCC(C)(N)CC5)cn4)c3Cl)nc2n1C1CCCC1` [Compound 4], for which the IC50 worked out at 435 nM against CDK4 and 30 nM against SHP2.
